{"source": "patent US20080214648A1", "about": "“Hiv Prodrugs Cleavable by Cd26” (priority 2003, published 2008)", "key": {"[1]": {"target": "T1, CD26 in human serum (Homo sapiens, UniProt P27487)", "T1 construct": "from tissue; host or cells: human serum, 2% in PBS", "T1 sequence (P27487 39-766 limits assumed)": "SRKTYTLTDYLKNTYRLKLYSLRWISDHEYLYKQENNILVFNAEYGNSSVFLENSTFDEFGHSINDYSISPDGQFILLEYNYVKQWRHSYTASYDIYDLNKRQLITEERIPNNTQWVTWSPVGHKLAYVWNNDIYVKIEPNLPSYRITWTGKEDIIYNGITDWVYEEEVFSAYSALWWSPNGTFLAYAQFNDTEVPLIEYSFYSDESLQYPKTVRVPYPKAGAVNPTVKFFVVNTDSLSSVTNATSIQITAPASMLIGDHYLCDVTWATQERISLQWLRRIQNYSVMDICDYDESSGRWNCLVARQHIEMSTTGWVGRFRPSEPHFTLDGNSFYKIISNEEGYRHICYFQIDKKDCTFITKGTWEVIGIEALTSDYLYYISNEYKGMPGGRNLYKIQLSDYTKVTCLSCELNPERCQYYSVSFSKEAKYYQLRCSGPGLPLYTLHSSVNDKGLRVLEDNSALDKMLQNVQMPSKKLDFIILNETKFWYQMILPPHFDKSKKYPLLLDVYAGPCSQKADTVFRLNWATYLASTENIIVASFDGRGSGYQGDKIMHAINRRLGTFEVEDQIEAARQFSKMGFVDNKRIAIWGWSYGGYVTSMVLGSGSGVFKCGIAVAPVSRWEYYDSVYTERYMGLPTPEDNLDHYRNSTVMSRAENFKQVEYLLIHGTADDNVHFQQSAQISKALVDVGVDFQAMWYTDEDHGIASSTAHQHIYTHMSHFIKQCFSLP", "test": "Inhibition of GP-pNA conversion to pNA by 2% human serum in PBS", "format": "biochemical", "settings": "HS 2% in PBS", "experimental": "(§1) The CD26 catalytic reaction was measured by recording the increase of absorption caused by pNA release at 400 nm."}, "[2]": {"target": "purified CD26 (Homo sapiens, UniProt P27487)", "sequence (P27487 whole entry, species assumed)": "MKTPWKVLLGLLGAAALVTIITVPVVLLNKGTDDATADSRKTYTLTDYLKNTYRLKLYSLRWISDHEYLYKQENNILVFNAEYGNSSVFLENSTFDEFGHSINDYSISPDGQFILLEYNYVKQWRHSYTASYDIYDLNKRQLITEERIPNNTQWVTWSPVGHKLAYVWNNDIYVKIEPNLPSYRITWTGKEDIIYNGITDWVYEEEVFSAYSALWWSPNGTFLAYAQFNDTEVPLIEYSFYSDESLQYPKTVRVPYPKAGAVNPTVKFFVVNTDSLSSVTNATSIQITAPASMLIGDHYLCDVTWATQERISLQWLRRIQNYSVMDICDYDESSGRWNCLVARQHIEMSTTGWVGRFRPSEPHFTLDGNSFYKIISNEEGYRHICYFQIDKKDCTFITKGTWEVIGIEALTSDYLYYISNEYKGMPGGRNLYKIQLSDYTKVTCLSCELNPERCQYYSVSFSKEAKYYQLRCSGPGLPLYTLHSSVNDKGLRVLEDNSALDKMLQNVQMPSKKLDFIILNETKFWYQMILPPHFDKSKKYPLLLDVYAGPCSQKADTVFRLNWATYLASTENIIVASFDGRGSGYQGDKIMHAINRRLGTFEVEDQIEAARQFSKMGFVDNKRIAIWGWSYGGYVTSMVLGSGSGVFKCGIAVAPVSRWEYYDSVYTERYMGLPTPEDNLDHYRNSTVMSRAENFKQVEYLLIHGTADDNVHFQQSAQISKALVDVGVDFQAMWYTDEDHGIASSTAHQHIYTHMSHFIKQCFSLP", "test": "Conversion of Val-Pro-PI 1 to PI 1 by purified CD26", "format": "biochemical", "experimental": "(§2) A: CD26; B: bovine serum; C: human serum (both 10% in PBS).\n(§3) Ten percent BS or HS converted 40 to 70% of Val-Pro-PI 1 to PI 1 in one hour (FIG. 10). Two percent BS and HS converted Val-Pro-PI 1 to PI 1 by 8% and 25%, respectively. After 4 hrs, 35% and 95% of compound was hydrolyzed by BS and HS, respectively (FIG. 11).\n(§4) Compounds were separated on a Reverse Phase RP-8 (Merck) using a gradient with buffer A (50 mM NaH2PO4+5 mM heptane sulfonic acid pH 3.2) and buffer B (acetonitrile).\n(§5) 0→2 min: 2% buffer B; 2→8 min: 20% buffer B; 8→10 min: 25% buffer B; 10→12 min: 35% buffer B; 12→30 min: 50% buffer B; 30→35 min: 50% buffer B; 35→40 min: 2% buffer B; 40→45 min: 2% buffer B. Rt values of Val-Pro-PI 1 and PI 1 were 18.7 and 17.7 min, respectively."}, "[3]": {"target": "CD26 (Homo sapiens, UniProt P27487)", "sequence (P27487 whole entry, species assumed)": "as above", "test": "Competitive inhibition of CD26-catalysed conversion of GP-pNA to GP+pNA (purified CD26)", "format": "biochemical", "experimental": "as §1"}, "[4]": {"target": "T2, CD26 in bovine serum (Bos taurus, UniProt P81425)", "T2 construct": "Conversion of GP-pNA to pNA by two percent BS in PBS; from tissue; host or cells: bovine serum, 2% in PBS", "T2 sequence (P81425 38-765)": "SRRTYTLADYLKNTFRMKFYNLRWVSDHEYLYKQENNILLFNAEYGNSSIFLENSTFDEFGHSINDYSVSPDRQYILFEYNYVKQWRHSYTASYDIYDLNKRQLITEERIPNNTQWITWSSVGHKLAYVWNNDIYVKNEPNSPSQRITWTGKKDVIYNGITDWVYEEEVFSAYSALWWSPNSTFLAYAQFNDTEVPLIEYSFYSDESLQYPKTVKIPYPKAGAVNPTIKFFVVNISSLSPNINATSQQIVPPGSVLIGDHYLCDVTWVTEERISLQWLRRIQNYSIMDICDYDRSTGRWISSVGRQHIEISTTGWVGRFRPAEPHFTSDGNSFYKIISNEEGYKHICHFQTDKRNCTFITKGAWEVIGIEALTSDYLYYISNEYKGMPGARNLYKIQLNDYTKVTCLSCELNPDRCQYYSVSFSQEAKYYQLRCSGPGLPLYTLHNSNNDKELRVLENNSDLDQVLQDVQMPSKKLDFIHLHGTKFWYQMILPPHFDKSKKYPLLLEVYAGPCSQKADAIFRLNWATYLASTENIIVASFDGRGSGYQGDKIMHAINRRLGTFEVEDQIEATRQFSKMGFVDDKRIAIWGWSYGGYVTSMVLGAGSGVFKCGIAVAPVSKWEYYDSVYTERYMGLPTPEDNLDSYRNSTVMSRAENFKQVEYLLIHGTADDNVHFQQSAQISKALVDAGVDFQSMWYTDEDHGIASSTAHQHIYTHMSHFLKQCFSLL", "test": "Inhibition of GP-pNA conversion to pNA by 2% bovine serum in PBS", "format": "biochemical", "settings": "2% BS in PBS, compared with purified CD26", "experimental": "as §1"}, "[5]": {"test": "Conversion of Val-Pro-PI 1 to PI 1 by human serum diluted in PBS", "format": "in vitro ADME", "settings": "2% human serum (HS) in PBS", "experimental": "as §2\n(§6) FIG. 3a: Bovine serum (2% in PBS), FIG. 3b: Human serum (2% in PBS).\nas §3, §4, §5"}, "[6]": {"test": "Conversion of Val-Pro-PI 1 to PI 1 by bovine serum diluted in PBS", "format": "in vitro ADME", "settings": "2% bovine serum (BS) in PBS", "experimental": "as §2, §6, §3, §4, §5"}, "[7]": {"settings": "time not printed (preceding sentence: one hour)"}}, "data": [{"smiles": "CC(C)CN(C[C@@H](O)[C@H](Cc1ccccc1)NC(=O)O[C@H]1CO[C@H]2OCC[C@H]21)S(=O)(=O)c1ccc(CNC(=O)[C@@H]2CCCN2C(=O)[C@@H](N)C(C)C)cc1", "note": "[Val-Pro-PI 1]", "values": [{"measurement": "inhibition of GP-pNA conversion to pNA", "setting": "[1]", "value": "competitively inhibited"}, {"measurement": "time to complete conversion of Val-Pro-PI 1 to PI 1", "setting": "[2]", "value": "≤ 60", "unit": "min"}, {"measurement": "inhibition of release of pNA from GP-pNA", "setting": "[3]; 20 μM Val-Pro-PI 1, 50 μM GP-pNA", "value": "could inhibit"}, {"measurement": "competition with substrate GP-pNA for CD26", "setting": "[3]; 100 μM Val-Pro-PI 1, 50 μM GP-pNA", "value": "efficiently competed"}, {"measurement": "inhibition of conversion of GP-pNA to pNA", "setting": "[4]", "value": "even more efficiently inhibited"}, {"measurement": "compound hydrolyzed", "setting": "[5]; after 4 hrs", "value": 95, "unit": "%"}, {"measurement": "conversion of Val-Pro-PI 1 to PI 1", "setting": "[5]; [7]", "value": 25, "unit": "%"}, {"measurement": "compound hydrolyzed", "setting": "[6]; after 4 hrs", "value": 35, "unit": "%"}, {"measurement": "conversion of Val-Pro-PI 1 to PI 1", "setting": "[6]; [7]", "value": 8, "unit": "%"}]}]}
